Laboratory results reported in BindingDB's records for doi:10.7270/Q29S1T6B (n/a, 1997).
pKi: −log10 of the molar value.

Molecular target: T1, Type-1 angiotensin II receptor B (Rattus norvegicus, UniProt P29089)
T1 sequence (P29089 whole entry): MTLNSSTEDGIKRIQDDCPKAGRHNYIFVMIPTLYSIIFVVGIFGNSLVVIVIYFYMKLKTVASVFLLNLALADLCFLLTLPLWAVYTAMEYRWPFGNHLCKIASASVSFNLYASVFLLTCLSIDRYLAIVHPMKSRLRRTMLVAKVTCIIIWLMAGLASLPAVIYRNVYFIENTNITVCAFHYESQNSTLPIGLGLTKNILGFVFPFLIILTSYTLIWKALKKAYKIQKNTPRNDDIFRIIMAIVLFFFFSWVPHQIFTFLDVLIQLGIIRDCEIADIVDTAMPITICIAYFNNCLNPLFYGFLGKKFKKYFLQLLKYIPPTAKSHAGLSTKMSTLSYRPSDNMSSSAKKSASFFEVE
Test: Inhibition of binding of [125I]All at the angiotensin II type 1 receptor (AT1 receptor) in rat liver membranes

Row | SMILES | pKi
1 | CCc1nn(Cc2ccc(-c3ccccc3-c3nnn[nH]3)cc2)c(=NC(=O)c2ccccc2Cl)s1 [2-Chloro-N-[5-ethyl-3-[2'-(1H-tetrazol-5-yl)-biphenyl-4-ylmethyl]-3H-[1,3,4]thiadiazol-(2Z)-ylidene]-benzamide] | 8.47
2 | CCc1nn(Cc2ccc(-c3ccccc3-c3nnn[nH]3)cc2)c(=NC(=O)c2ccccc2)s1 [N-[5-Ethyl-3-[2'-(1H-tetrazol-5-yl)-biphenyl-4-ylmethyl]-3H-[1,3,4]thiadiazol-(2Z)-ylidene]-benzamide] | 7.44
3 | CCc1nn(Cc2ccc(-c3ccccc3-c3nnn[nH]3)cc2)c(=NC(=O)c2ccccc2C(=O)O)s1 [N-[5-Ethyl-3-[2'-(1H-tetrazol-5-yl)-biphenyl-4-ylmethyl]-3H-[1,3,4]thiadiazol-(2Z)-ylidene]-phthalamic acid] | 9.21
